Data from ChEMBL document CHEMBL1131315, “Synthesis and anticonvulsant activity of 2(3H)-benzoxazolone and 2(3H)-benzothiazolone derivatives” (J Med Chem, 1998).
Several values for one entry are separate records, joined by “and”; a condition that tells them apart may be missing. Equal values may be shown once. Activity calls are given as the source filed them. No cut-off for these calls is given here.

What was measured:
[1] = tested on: Mus musculus; test: Time of peak effect in mice following i.p. administration.; format: functional
[2] = tested on: Mus musculus; test: The compound was tested for anticonvulsant activity in Maximal electroshock seizure test (MES) for 4 hr in mice(ip); no activity or toxicity at 300 mg/kg; format: functional, organism-based; parameters: dose 300 mg/kg
[3] = tested on: Mus musculus; test: The compound was tested for anticonvulsant activity in Maximal electroshock seizure test (MES) for 30 min in mice(ip); activity at 30 mg/kg; format: functional, organism-based; parameters: dose 30 mg/kg
[4] = tested on: Mus musculus; test: The compound was tested to inhibit 50% of induced maximal electroshock seizure in mice on ip administration; format: functional
[5] = tested on: Mus musculus; test: The compound was tested to inhibit 50% of induced subcutaneous pentylenetetrazole seizure in mice on ip administration; format: functional
[6] = tested on: Mus musculus; test: The compound was determined for the dose (mg/kg) by rotarod test at the time of peak neurotoxic effect in mice on ip administration; format: functional
[7] = tested on: Mus musculus; test: The compound was tested for anticonvulsant activity in subcutaneous pentylenetetrazole seizure test (sc Met) for 4 hr in mice; no activity or toxicity at 300 mg/kg; format: functional, organism-based; parameters: dose 300 mg/kg
[8] = tested on: Mus musculus; test: The compound was tested for anticonvulsant activity in subcutaneous pentylenetetrazole seizure test (sc Met) for 30 min in mice; no activity or toxicity at 300 mg/kg; format: functional, organism-based; parameters: dose 300 mg/kg
[9] = tested on: Rattus norvegicus; test: The compound was tested per os dose of 30 mg/kg for 0.25 hours for maximal electroshock test on rats; MES= 3/4; format: functional
[10] = tested on: Rattus norvegicus; test: The compound was tested per os dose of 30 mg/kg for 0.25 hours for rotarod toxicity; 0/4; format: functional
[11] = tested on: Rattus norvegicus; test: The compound was tested per os dose of 30 mg/kg for 0.5 hours for maximal electroshock test (MES) on rats; MES= 2/4; format: functional
[12] = tested on: Rattus norvegicus; test: The compound was tested per os dose of 30 mg/kg for 0.5 hours for rotarod toxicity; 0/4; format: functional
[13] = tested on: Rattus norvegicus; test: The compound was tested per os dose of 30 mg/kg for 1 hour for maximal electroshock test (MES) on rats; MES= 1/4; format: functional
[14] = tested on: Rattus norvegicus; test: The compound was tested per os dose of 30 mg/kg for 1 hour for rotarod toxicity; 0/4; format: functional
[15] = tested on: Rattus norvegicus; test: The compound was tested per os dose of 30 mg/kg for 2 hours for maximal electroshock test (MES) on rats; MES= 0/4; format: functional
[16] = tested on: Rattus norvegicus; test: The compound was tested per os dose of 30 mg/kg for 2 hours for rotarod toxicity; 0/4; format: functional
[17] = tested on: Rattus norvegicus; test: The compound was tested per os dose of 30 mg/kg for 4 hours for maximal electroshock test (MES) on rats; MES= 0/4; format: functional
[18] = tested on: Rattus norvegicus; test: The compound was tested per os dose of 30 mg/kg for 4 hours for rotarod toxicity; 0/4; format: functional
[19] = tested on: Rattus norvegicus; test: The compound was tested for the effective oral dose to inhibit 50% of the anticonvulsant in rats.(value in parenthesis indicate 95% confidence limits).; format: functional
[20] = target: Sigma 2 receptor; test: Affinity on sigma 2 receptor using [3H]- DTG as radioligand
[21] = target: Sigma non-opioid intracellular receptor 1 (Homo sapiens) (UniProt Q99720); test: Ratio between the Ki(nM)values of sigma-2 and sigma-1; format: functional; settings: Cavia porcellus
Chain of Sigma non-opioid intracellular receptor 1 (Homo sapiens) (Q99720 whole entry): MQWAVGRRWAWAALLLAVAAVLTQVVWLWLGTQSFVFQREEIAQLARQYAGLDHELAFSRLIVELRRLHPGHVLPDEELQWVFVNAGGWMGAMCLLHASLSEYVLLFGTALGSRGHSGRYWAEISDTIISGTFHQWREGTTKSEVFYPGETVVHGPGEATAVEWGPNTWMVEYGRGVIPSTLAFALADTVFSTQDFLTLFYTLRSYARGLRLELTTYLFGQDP

[22] = The compound was tested for time of peak effect (TPE) in hours for its toxicity in mice on ip administration.; format: organism-based; settings: mouse, in vivo
[23] = The compound was tested for neurologic toxicity (rotarod) test for 30 min in mice; no activity or toxicity at 300 mg/kg; format: organism-based; parameters: dose 300 mg/kg; settings: mouse, in vivo, 0.5 h
[24] = The compound was tested for neurologic toxicity (rotarod) test for 4 hr in mice; no activity or toxicity at 300 mg/kg; format: organism-based; parameters: dose 300 mg/kg; settings: mouse, in vivo
[25] = tested on: Mus musculus; test: The compound was tested for anticonvulsant activity in Maximal electroshock seizure test for 30 min in mice(ip); active at 30 mg/kg; format: functional, organism-based; parameters: dose 30 mg/kg
[26] = tested on: Mus musculus; test: Anticonvulsant activity in subcutaneous pentylenetetrazole seizure test for 30 min in mice; No activity/toxicity at 300 mg/kg.; format: functional, organism-based; parameters: dose 300 mg/kg
[27] = tested on: Mus musculus; test: The anticonvulsant activity in subcutaneous pentylenetetrazole seizure test (sc Met) for 4 hr in mice; no activity or no toxicity at 300 mg/kg; format: functional, organism-based; parameters: dose 300 mg/kg
[28] = The compound was tested for neurologic toxicity (rotarod) test for 30 min in mice; active at 30 mg/kg; format: organism-based; parameters: dose 30 mg/kg; settings: mouse, in vivo, 0.5 h
[29] = The compound was tested for neurologic toxicity (rotarod) test for 4 hours in mice; no activity or no toxicity at 300 mg/kg; format: organism-based; parameters: dose 300 mg/kg; settings: mouse, in vivo
[30] = tested on: Mus musculus; test: The compound was tested for anticonvulsant activity in Maximal electroshock seizure test (MES) for 4 hr in mice(ip); active at 100 mg/kg; format: functional, organism-based; parameters: dose 100 mg/kg
[31] = tested on: Mus musculus; test: The compound was tested to inhibit 50% of induced maximal electroshock seizure in mice on ip administration.; format: functional
[32] = tested on: Mus musculus; test: Inhibition of s.c. pentylenetetrazole induced seizure in mice following i.p. administration.; format: functional
[33] = tested on: Mus musculus; test: The compound was tested for anticonvulsant activity in subcutaneous pentylenetetrazole seizure test (sc Met) for 30 min in mice; active at 100 mg/kg; format: functional, organism-based; parameters: dose 100 mg/kg
[34] = tested on: Mus musculus; test: The compound was tested for anticonvulsant activity in subcutaneous pentylenetetrazole seizure test (sc Met) for 4 hr in mice; active at 300 mg/kg; format: functional, organism-based; parameters: dose 300 mg/kg
[35] = tested on: Rattus norvegicus; test: The compound was tested for the effective oral dose to inhibit 50% of the anticonvulsant in rats.(Value in parenthesis indicate 95% confidence limits).; format: functional
[36] = tested on: Rattus norvegicus; test: The compound was tested per os dose of 25 mg/kg for 2 hours for rotarod toxicity; 0/4; format: functional
[37] = tested on: Rattus norvegicus; test: The compound was tested per os dose of 25 mg/kg for 4 hours for rotarod toxicity; 0/4; format: functional
[38] = tested on: Rattus norvegicus; test: The compound was tested per os dose of 25 mg/kg for 0.25 hours for rotarod toxicity; 0/4; format: functional
[39] = tested on: Rattus norvegicus; test: The compound was tested per os dose of 25 mg/kg for 1 hour for rotarod toxicity; 0/4; format: functional
[40] = tested on: Rattus norvegicus; test: The compound was tested per os dose of 25 mg/kg for 0.25 hours for maximal electroshock test on rats; MES= 2/4; format: functional
[41] = tested on: Rattus norvegicus; test: The compound was tested per os dose of 25 mg/kg for 0.5 hours for maximal electroshock test on rats; MES= 2/4; format: functional
[42] = tested on: Rattus norvegicus; test: The compound was tested per os dose of 25 mg/kg for 1 hour for maximal electroshock test on rats; MES= 4/4; format: functional
[43] = tested on: Rattus norvegicus; test: The compound was tested per os dose of 25 mg/kg for 2 hours for maximal electroshock test on rats; MES= 3/4; format: functional
[44] = tested on: Rattus norvegicus; test: The compound was tested per os dose of 25 mg/kg for 4 hours for maximal electroshock test on rats; MES= 2/4; format: functional
[45] = The compound was determined for the dose (mg/kg) by rotarod test at the time of peak neurotoxic effect in mice on ip administration.; format: ADME, organism-based; settings: mouse, in vivo
[46] = The compound was tested for neurologic toxicity (rotarod) test for 4 hours in mice; active at 30 mg/kg; format: organism-based; parameters: dose 30 mg/kg; settings: mouse, in vivo
[47] = The compound was tested for the toxic dose on oral administration. (Value in parenthesis indicate 95% confidence limits).; format: ADME; settings: rat
[48] = (§1) Protective index value is the ratio between ED50 and TD50; format: functional
[49] = tested on: Rattus norvegicus; test: The compound was tested per os dose of 25 mg/kg for 0.5 hours for rotarod toxicity; 0/4; format: functional
[50] = tested on: Rattus norvegicus; test: The compound was tested for the effective oral dose to inhibit 50% of the anticonvulsant in rats.; format: functional
[51] = tested on: Mus musculus; test: Anticonvulsant activity in Maximal electroshock seizure test at 100 mg/kg i.p. in mice.; format: functional, organism-based; parameters: dose 100 mg/kg
[52] = species: Mus musculus; test: Protective index value is the ratio between TD50 and ED50 values.; format: functional
[53] = tested on: Mus musculus; test: The compound was tested for anticonvulsant activity in subcutaneous pentylenetetrazole seizure test (sc Met) for 30 min in mice; active at 300 mg/kg; format: functional, organism-based; parameters: dose 300 mg/kg
[54] = tested on: Rattus norvegicus; test: The compound was tested for the toxic dose on oral administration.; format: functional
[55] = species: Rattus norvegicus; test: as §1; format: functional
[56] = The compound was tested for neurologic toxicity (rotarod) test for 30 min in mice; active at 100 mg/kg; format: organism-based; parameters: dose 100 mg/kg; settings: mouse, in vivo, 0.5 h
[57] = The compound was tested for neurologic toxicity (rotarod) test for 4 hours in mice; active at 300 mg/kg; format: organism-based; parameters: dose 300 mg/kg; settings: mouse, in vivo

## CCC(=O)c1ccc2c(c1)sc(=O)n2C(=O)CC
[1]
  Activity: 0.25 h
[2]
  MES: activity at 30 mg/kg
[3]
  MES: activity at 30 mg/kg
[4]
  ED50: 19.4 mg/kg
[5]
  ED50: > 300 mg/kg
[6]
  TD50: 145 mg/kg
[7]
  scMet: No activity or toxicity at 300 mg/kg
[8]
  scMet: No activity or toxicity at 300 mg/kg
[9]
  Activity: 3
[10]
  Activity: 0
[11]
  Activity: 2
[12]
  Activity: 0
[13]
  Activity: 1
[14]
  Activity: 0
[15]
  Activity: 0
[16]
  Activity: 0
[17]
  Activity: 0
[18]
  Activity: 0
[19]
  ED50: 32.4 mg/kg
[20]
  Ki: 670 nM
[21]
  Ratio: 11
[22]
  Toxicity: 0.25 h
[23]
  Rotarod toxicity: No activity or toxicity at 300 mg/kg
[24]
  Rotarod toxicity: No activity or toxicity at 300 mg/kg

## CCC(=O)c1ccc2c(c1)sc(=O)n2CCCN1CCCCC1
[25]
  MES: active at 30 mg/kg
[2]
  MES: active at 30 mg/kg
[26]
  scMet: No activity or no toxicity at 300 mg/kg
[27]
  scMet: No activity or no toxicity at 300 mg/kg
[28]
  Rotarod toxicity: active at 30 mg/kg
[29]
  Rotarod toxicity: active at 30 mg/kg

## Cn1c(=O)sc2ccccc21
[1]
  Activity: 0.25 h
[25]
  MES: active at 100 mg/kg
[30]
  MES: active at 100 mg/kg
[31]
  ED50: 24.2 mg/kg
[32]
  ED50: > 100 mg/kg
[33]
  scMet: active at 100 mg/kg
[34]
  scMet: active at 100 mg/kg
[35]
  ED50: 16.2 mg/kg
[36]
  No. of animals exhibiting toxicity / Number of animals tested: 0
[37]
  No. of animals exhibiting toxicity / Number of animals tested: 0
[38]
  No. of animals exhibiting toxicity / Number of animals tested: 0
[39]
  No. of animals exhibiting toxicity / Number of animals tested: 0
[40]
  Protected/Tested: 2
[41]
  Protected/Tested: 2
[42]
  Protected/Tested: 4
[43]
  Protected/Tested: 3
[44]
  Protected/Tested: 2
[28]
  Rotarod toxicity: active at 30 mg/kg
[45]
  TD50: 55.2 mg/kg
[22]
  Toxicity: 0.25 h
[46]
  Rotarod toxicity: active at 30 mg/kg
[47]
  TD50: 140 mg/kg
[48]
  PI: 8.6
[49]
  No. of animals exhibiting toxicity / Number of animals tested: 0

## NC(=O)N1c2ccccc2C=Cc2ccccc21 [CARBAMAZEPINE]
[31]
  ED50: 8.8 mg/kg
[32]
  ED50: > 100 mg/kg
[50]
  ED50: 8.5 mg/kg

## CCCC(CCC)C(=O)O [VALPROIC ACID]
[32]
  ED50: 149 mg/kg
[50]
  ED50: 490 mg/kg

## CCCCCc1ccc2nc(O)sc2c1
[1]
  Activity: 0.25 h
[51]
  MES: active at 100 mg/kg
[30]
  MES: active at 100 mg/kg
[4]
  ED50: 58.9 mg/kg
[32]
  ED50: 90.5 mg/kg
[52]
  PI: 2.3 and 1.5
[53]
  scMet: active at 300 mg/kg
[34]
  scMet: active at 300 mg/kg
[50]
  ED50: 50.5 mg/kg
[54]
  TD50: > 120 mg/kg
[55]
  PI: 2.4
[56]
  Rotarod toxicity: active at 100 mg/kg
[45]
  TD50: 137 mg/kg
[22]
  Toxicity: 0.5 h
[57]
  Rotarod toxicity: active at 100 mg/kg
